“Also recorded” adds a separate entry of the source.
Experiments:
[1] = system: H4 neuroglioma cells over-expressing αSyn; conditions: earlier report; cited from earlier work
[2] = system: H4 neuroglioma cells over-expressing αSyn; test: Phagocytosis assay; type: cell-based, human; conditions: for phagocytosis restored, percent of that in cells with endogenous αSyn levels (control): phagocytosis inhibited by αSyn overexpression; for reversal of αSyn mediated inhibition of phagocytosis: 100 nM
Description: A human neuroglioma H4 cell-derived cell line stably over-expressing αSyn from a tetracycline inducible promoter was generated using the tet inducible TRex system (Invitrogen division of Life Technologies) and grown in serum-free X-VIVO media (Lonza Group, Basel, Switzerland). Cells were seeded in 96-well plates at densities yielding 75 to 90% confluency during the phagocytosis assay. The next day, compound was added along with 5 μg/ml tetracycline to induce αSyn overexpression. Cells were cultured overnight and the next day were fed […] red fluorescent beads (Invitrogen, Carlsbad, CA) for 90 minutes at a cell-to-bead ratio of 1:10. Plates were gently washed with 100 μl/well media twice, fixed and stained with HEMA3 (Thermo Fisher, Waltham, MA). Plates were dried overnight and read on an ArrayScan (Thermo Fisher, Waltham, MA). As the HEMA3 stain absorbs light, the internalized beads are less fluorescent than the outside beads. Tet/non-tet and 484228 samples were run on each plate.

αSyn [3] = target: T1, αSyn (Homo sapiens, UniProt P37840); design: made in house; host or cells: E. coli; conditions: prior study (Toth et al 2014); cited from earlier work
αSyn [4] = target: T1, αSyn; design: made in house; host or cells: E. coli; conditions: prior study (Toth et al 2014); cited from earlier work; remark: listed apart in the source
αSyn [5] = target: T1, αSyn; test: αSyn fibrillization assay (Thioflavin T fluorescence); type: biochemical; design: made in house; host or cells: E. coli BL21(DE3), pET-21d; conditions: compound at 300 μM, 70 μM αSyn, vs 0.5% DMSO control
Description: Fibrillization assays. Prior to each aggregation assay, purified αSyn at 5 mg/mL was treated with 6M guanidine and dialyzed 36 hours in a 3500 MW cutoff Slide-A-lyzer with three changes of 20 mM sodium phosphate and 100 mM NaCl pH 7.4 buffer. αSyn was centrifuged at 130,000 g for 40 minutes in a Beckman Ultracentrifuge to remove seeding species and supernatant used for assays. For initial testing, 60 mM compound in DMSO was diluted to 300 μM in 0.5% DMSO and controls contained equivalent DMSO concentrations. Assay samples contained 20 μM Thioflavin T, filtered through a 0.45 μm Acrodisc filter prior to each assay, 70 μM αSyn in 20 mM sodium phosphate and 100 mM NaCl pH 7.4. One teflon bead, (0.125″ PTFE, Grade 2 polished) was placed in each well of a 96 well black with clear bottom assay plate (Corning) in a total volume of 500 μL. The plate was sealed with Mylar and parafilm, placed at 37° C. in a Tecan F200Pro Plate Reader and shaken at an amplitude of 6 mm for 120 hours continuously except for a brief time during reading of the plate. Thioflavin T fluorescence was detected by excitation at 440 nm and reading emissions at 485 nm each 60 minutes throughout the assay. To generate αSyn seeds for the seeding assays, αSyn at 10 mg/mL was incubated with stirring at 43° C. for 24 hours followed by exhaustive sonication. 1% (by mass) of seeds were added to the fibrillization assay. Samples were plated in quadruplicate, and the replicates averaged for each experiment for plotted data. Data were analyzed in Excel using XL-fit sigmoidal model #600 and when normalized, comparing fluorescence values at 50 hours for compounds as a percentage of DMSO control.
α-Syn for the Fibrillization assay. Wildtype human αSyn was produced from a pET-21d plasmid (Millipore, Burlington, MA) in E. coli BL21(DE3) cells induced by addition of 1 mM […] and incubated at 16° C. overnight. Cells were harvested by centrifugation at 4,000×g for 10 minutes and stored at −80° C. Frozen cells expressing αSyn protein were resuspended in 50 mM Tris, pH 7.5, 1 mM TCEP, 1 mM EDTA, and 1 mM L-Methionine and lysed using a microfluidizer. Lysate was centrifuged at 7000×g for 0.5 hours at 21° C. The supernatant was boiled in a water bath for 15 minutes, cooled on ice and centrifuged at 45,000 g for 30 min. The supernatant was filtered through a 0.2 μm Corning filter and subjected to ion exchange chromatography using a Capto ImpRes Q (GE Healthcare, Upssala, Sweden) anion exchange (IEX) column at ambient temperature. The column was eluted with a gradient of 100 column volumes from 0 to 1M NaCl using an AKTA Explorer 100 Liquid Chromatography System (GE Healthcare, Uppsala, Sweden). Pure αSyn fractions were desalted to 50 mM KPO4, pH 7.5 and 50 mM NaCl using PD-10 columns (GE Healthcare, Chicago, IL) and concentrated to 5 mg/mL or 10 mg/ml (3K MWCO, Amicon Ultra, Millipore, Burlington, MA).
Statistical Analysis of compound activity in Fibrillization assays. For the analyses of compound activity in the αSyn fibrillization assay, the relative fluorescence unit (RFU) data obtained from compounds were compared to those of DMSO, to identify those that are statistically different from DMSO at various time points. Each experiment contained 4 replicates of each compound and of DMSO control. […] A repeated measures analysis of variance was performed on logarithmic transformed data using a linear mixed effects model which included Compound, Time, Replicate (Compound) and Compound*Time. The covariance structure across time that minimized the corrected Akaike Information Criterion (AICC) was used and the Kenward and Roger method was used to determine the appropriate degrees of freedom. Each compound mean was compared to the DMSO mean using Bonferroni multiplicity adjusted t-tests. Statistical analyses were conducted using the MIXED procedure in SAS 9.1 (SAS Institute Inc. Cary, NC, USA). Statistical significance refers to p-value<0.05.

Row | SMILES | phagocytosis restored, percent of that in cells with endogenous αSyn levels (control) [2] [%] | impact on αSyn fibrillization (thioflavin fluorescence signal) (αSyn [5]) | reversal of αSyn mediated inhibition of phagocytosis [2] | also measured
1 | O=S(=O)(Nc1ccc(F)cc1)c1ccccc1 [Compound 484228, N-(4-fluorophenyl)benzenesulfonamide] | ≤ 80 |  |  | restoration of phagocytosis in the face of αSyn overexpression [1]: restored normal phagocytosis; impact on aggregation of the recombinant protein (αSyn [3]): without impact on aggregation; reversal of αSyn over-expression mediated neurodegeneration (αSyn [4]): protective activity
2 | CNC(=O)C[C@H](N)Cc1cccc2ccccc12 [Compound 573416, (R)-3-amino-N-methyl-4-(naphthalen-1-yl)butanamide] |  | no impact on αSyn fibrillization |  | 
3 | NC(=O)[C@H](Cc1c[nH]cn1)NC(=O)c1ccccn1 [Compound 573418, (S)-N-(1-amino-3-(1H-imidazol-4-yl)-1-oxopropan-2-yl)picolinamide] |  |  | complete reversal | 
4 | NC(=O)[C@@H](NC(=O)c1csc(-c2ccccc2)n1)C1CCCCC1 [Compound 573419, (S)-N-(2-amino-1-cyclohexyl-2-oxoethyl)-2-phenylthiazole-4-carboxamide] |  |  | complete reversal | 
5 | CNC(=O)CC(N)c1ccc(-c2ccccc2)cc1 (stereo not drawn) [Compound 581674, 3-([1,1′-biphenyl]-4-yl)-3-amino-N-methylpropanamide] | 100 | inhibit fibrillization; also recorded: blocks αSyn fibrillization |  | 
